Experimental data reported in ChEMBL document CHEMBL3885861, “Open TG-GATES”.

Organism: Rattus norvegicus
Assay: Open TG-GATES - Regimen: Daily Repeat
Assay type: toxicity, organism-based, Sprague-Dawley
Parameters: regimen Daily Repeat, gender Male, age 6 weeks
Conditions: in vivo, po, route gavage; for Bas / Eos / Fbg / Ht / Lym / MCHC / MCV / Mono / PT / Plat / RBC / Ret / WBC / Neu: tissue Blood; for KIDNEY_L / KIDNEY_R / KIDNEY_TOTAL: tissue Kidney; for ALT / AST / CRE / Ca / DBIL / GLC / IP / K / LDH / Na / PL / RALB / TBIL / TC / TG / TP / gamma-GTP / BUN / Cl: tissue Plasma
[1] = 240 mg/kg, 72 h, dose level Middle, time 3 day
[2] = 240 mg/kg, […], dose level Middle, time 7 day
[3] = 240 mg/kg, […], dose level Middle, time 14 day
[4] = 240 mg/kg, […], dose level Middle, time 28 day
[5] = 800 mg/kg, 72 h, dose level High, time 3 day
[6] = 800 mg/kg, […], dose level High, time 7 day
[7] = 800 mg/kg, […], dose level High, time 14 day
[8] = 800 mg/kg, […], dose level High, time 28 day

## COc1ccc([C@@H]2Sc3ccccc3N(CCN(C)C)C(=O)[C@@H]2OC(C)=O)cc1 [DILTIAZEM]
[1]
  Bas: 0.2%
  Eos: 1%
  Fbg: 294.4 mg/dL
  Ht: 40.4%
  Lym: 71.6%
  MCHC: 32.8%
  MCV: 65.7 fL
  Mono: 3.4%
  PT: 13.8 s
  Plat: 118.5 x10_4/uL
  RBC: 614.8 x10_4/ul
  Ret: 8.8%
  WBC: 106.5 x10_2/uL
  KIDNEY_L: 1 g
  KIDNEY_R: 1 g
  KIDNEY_TOTAL: 2 g
  ALT: 50 IU/L
  AST: 67.4 IU/L
  CRE: 0.2 mg/dL
  Ca: 11.3 mg/dL
  DBIL: 0.02 mg/dL
  GLC: 183 mg/dL
  IP: 8.1 mg/dL
  K: 3.9 meq/L
  LDH: 81.8 IU/L
  Na: 144 meq/L
  PL: 153.8 mg/dL
  RALB: 2.7 g/dL
  TBIL: 0.024 mg/dL
  TC: 87.6 mg/dL
  TG: 99.4 mg/dL
  TP: 5.6 g/dL
  gamma-GTP: 1.2 IU/L
[2]
  TERMINAL_BW: 251.4 g
  Bas: 0%
  Eos: 0.8%
  Fbg: 301.4 mg/dL
  Ht: 41%
  Lym: 75.2%
  MCHC: 32.9%
  MCV: 63.6 fL
  Mono: 2.6%
  Neu: 20.6%
  PT: 13.9 s
  Plat: 129.2 x10_4/uL
  RBC: 644.6 x10_4/ul
  Ret: 7%
  WBC: 72.6 x10_2/uL
  KIDNEY_L: 1.1 g
  KIDNEY_R: 1 g
  KIDNEY_TOTAL: 2.1 g
  ALT: 38.6 IU/L
  AST: 61.6 IU/L
  BUN: 15 mg/dL
  CRE: 0.2 mg/dL
  Ca: 11.4 mg/dL
  Cl: 105.8 meq/L
  DBIL: 0.01 mg/dL
  GLC: 190.6 mg/dL
  IP: 8.2 mg/dL
  K: 3.9 meq/L
  LDH: 97.2 IU/L
  Na: 144.2 meq/L
  PL: 155 mg/dL
  RALB: 2.8 g/dL
  TBIL: 0.016 mg/dL
  TC: 81.2 mg/dL
  TG: 117 mg/dL
  TP: 5.9 g/dL
  gamma-GTP: 1.2 IU/L
[3]
  TERMINAL_BW: 321.6 g
  Bas: 0.6%
  Eos: 0.8%
  Fbg: 336.4 mg/dL
  Ht: 42.8%
  Lym: 73%
  MCHC: 33.1%
  MCV: 61.7 fL
  Mono: 2.6%
  Neu: 22.2%
  PT: 14.1 s
  Plat: 131.9 x10_4/uL
  RBC: 693.6 x10_4/ul
  Ret: 5.6%
  WBC: 112.7 x10_2/uL
  KIDNEY_L: 1.3 g
  KIDNEY_R: 1.4 g
  KIDNEY_TOTAL: 2.7 g
  ALT: 44.4 IU/L
  AST: 67.8 IU/L
  BUN: 14.8 mg/dL
  CRE: 0.2 mg/dL
  Ca: 11 mg/dL
  DBIL: 0.012 mg/dL
  GLC: 194.4 mg/dL
  IP: 7.6 mg/dL
  K: 4 meq/L
  LDH: 80 IU/L
  Na: 144.4 meq/L
  PL: 165.4 mg/dL
  RALB: 2.8 g/dL
  TBIL: 0.014 mg/dL
  TC: 84.2 mg/dL
  TG: 125.4 mg/dL
  TP: 6.1 g/dL
  gamma-GTP: 1.4 IU/L
[4]
  TERMINAL_BW: 419 g
  Bas: 0.2%
  Eos: 1.4%
  Fbg: 305.4 mg/dL
  Ht: 45.7%
  Lym: 69%
  MCHC: 34.4%
  MCV: 58.1 fL
  Mono: 2.4%
  Neu: 26.6%
  PT: 13.9 s
  Plat: 109.1 x10_4/uL
  RBC: 786.8 x10_4/ul
  Ret: 2.5%
  WBC: 119 x10_2/uL
  KIDNEY_L: 1.5 g
  KIDNEY_R: 1.5 g
  KIDNEY_TOTAL: 3 g
  ALT: 43.8 IU/L
  AST: 64.2 IU/L
  BUN: 17.2 mg/dL
  CRE: 0.2 mg/dL
  Ca: 11.3 mg/dL
  Cl: 108.6 meq/L
  DBIL: 0.012 mg/dL
  GLC: 188.6 mg/dL
  IP: 7 mg/dL
  K: 4 meq/L
  LDH: 82.6 IU/L
  Na: 146.6 meq/L
  PL: 168.8 mg/dL
  RALB: 3 g/dL
  TBIL: 0.014 mg/dL
  TC: 85.2 mg/dL
  TG: 163.4 mg/dL
  TP: 6.6 g/dL
  gamma-GTP: 1 IU/L
[5]
  TERMINAL_BW: 201.2 g
  Bas: 0%
  Eos: 1%
  Fbg: 277 mg/dL
  Ht: 41.8%
  Lym: 71.4%
  MCHC: 33.3%
  MCV: 64.5 fL
  Mono: 2.6%
  Neu: 24.2%
  PT: 14 s
  Plat: 141.9 x10_4/uL
  RBC: 651.2 x10_4/ul
  Ret: 7.5%
  WBC: 87.5 x10_2/uL
  KIDNEY_L: 0.9 g
  KIDNEY_R: 0.9 g
  KIDNEY_TOTAL: 1.8 g
  ALT: 36.4 IU/L
  AST: 61.8 IU/L
  CRE: 0.2 mg/dL
  Ca: 11 mg/dL
  Cl: 106.6 meq/L
  DBIL: 0.014 mg/dL
  GLC: 161.8 mg/dL
  IP: 8 mg/dL
  K: 4 meq/L
  LDH: 76.6 IU/L
  Na: 143.6 meq/L
  PL: 151.4 mg/dL
  RALB: 2.6 g/dL
  TBIL: 0.012 mg/dL
  TC: 92.2 mg/dL
  TG: 96.6 mg/dL
  TP: 5.4 g/dL
  gamma-GTP: 1 IU/L
[6]
  TERMINAL_BW: 242.9 g
  Bas: 0%
  Eos: 0.6%
  Fbg: 312.6 mg/dL
  Ht: 40.7%
  Lym: 70.6%
  MCHC: 33.3%
  MCV: 63.4 fL
  Mono: 2.8%
  Neu: 25.4%
  PT: 14.6 s
  Plat: 130.6 x10_4/uL
  RBC: 641.4 x10_4/ul
  Ret: 6.3%
  WBC: 99.7 x10_2/uL
  KIDNEY_L: 1 g
  KIDNEY_R: 1 g
  KIDNEY_TOTAL: 2 g
  ALT: 50 IU/L
  AST: 70.6 IU/L
  CRE: 0.2 mg/dL
  Ca: 11.3 mg/dL
  Cl: 105.6 meq/L
  DBIL: 0.006 mg/dL
  GLC: 187 mg/dL
  IP: 8.3 mg/dL
  K: 4 meq/L
  LDH: 101.6 IU/L
  Na: 144.8 meq/L
  PL: 145 mg/dL
  RALB: 2.7 g/dL
  TBIL: 0.004 mg/dL
  TC: 87.2 mg/dL
  TG: 59.6 mg/dL
  TP: 5.7 g/dL
  gamma-GTP: 1.2 IU/L
[7]
  TERMINAL_BW: 272.9 g
  Bas: 0%
  Eos: 0.6%
  Fbg: 373.6 mg/dL
  Ht: 45.5%
  Lym: 73.2%
  MCHC: 33.4%
  MCV: 59.8 fL
  Mono: 3.4%
  Neu: 21.4%
  PT: 14.1 s
  Plat: 133.1 x10_4/uL
  RBC: 760 x10_4/ul
  Ret: 4%
  WBC: 108.8 x10_2/uL
  KIDNEY_L: 1.2 g
  KIDNEY_R: 1.2 g
  KIDNEY_TOTAL: 2.4 g
  ALT: 61.6 IU/L
  AST: 115.4 IU/L
  BUN: 16 mg/dL
  CRE: 0.2 mg/dL
  Ca: 10.7 mg/dL
  DBIL: 0.008 mg/dL
  GLC: 166.2 mg/dL
  IP: 7.2 mg/dL
  K: 4 meq/L
  LDH: 96.2 IU/L
  Na: 146.4 meq/L
  PL: 152.8 mg/dL
  RALB: 2.8 g/dL
  TBIL: 0.004 mg/dL
  TC: 99.2 mg/dL
  TG: 66.4 mg/dL
  TP: 6.1 g/dL
  gamma-GTP: 1 IU/L
[8]
  TERMINAL_BW: 390.8 g
  Bas: 0.2%
  Eos: 1%
  Fbg: 281.5 mg/dL
  Ht: 45.1%
  Lym: 64.8%
  MCHC: 34.1%
  MCV: 58.1 fL
  Mono: 3.2%
  Neu: 30.2%
  PT: 14.5 s
  Plat: 116.2 x10_4/uL
  RBC: 777.2 x10_4/ul
  Ret: 3.3%
  WBC: 123.1 x10_2/uL
  KIDNEY_L: 1.5 g
  KIDNEY_R: 1.5 g
  KIDNEY_TOTAL: 2.9 g
  ALT: 52.5 IU/L
  AST: 64 IU/L
  BUN: 17.2 mg/dL
  CRE: 0.2 mg/dL
  Ca: 11.4 mg/dL
  Cl: 105.8 meq/L
  DBIL: 0.01 mg/dL
  GLC: 174.8 mg/dL
  IP: 7.2 mg/dL
  K: 3.9 meq/L
  LDH: 74.8 IU/L
  Na: 145.8 meq/L
  PL: 154 mg/dL
  RALB: 3 g/dL
  TBIL: 0.0025 mg/dL
  TC: 85.8 mg/dL
  TG: 72.2 mg/dL
  TP: 6.4 g/dL
  gamma-GTP: 2.2 IU/L
